Measured values as given in patent US9566341B1, “Compounds including Cox inhibitor moiety and enhanced delivery of active drugs using same” (University of Kentucky Research Foundation, priority 2011, dated 2017).
“Also recorded” adds a separate entry of the source. Read-outs that look alike come from different tables or passages of the source.

How the values were obtained:
[1] = Enzymatic stability in hairless guinea pig plasma; assay type: in vitro ADME; settings: for enzymatic stability half-life in hairless guinea pig plasma: HGP plasma, 37° C., n=3
Protocol: Chemical and enzymatic stability was determined for the codrugs. For chemical stability studies, the codrug was put in prewarmed 0.3M acetate buffer pH 5.0 after solubilization in <5% ACN, if required, at 32° C. in an incubator. Samples were withdrawn at regular intervals and injected into the HPLC after appropriate dilutions. Enzymatic stability studies are important for estimation of conversion of codrugs in the plasma. For plasma stability studies prewarmed HGP plasma at 37° C. was spiked with codrug solution and samples were withdrawn at regular intervals. 100 μl of plasma sample was extracted with 1 ml of 1:1 ACN:ethyl acetate, vortexed, centrifuged at 10,000 rpm for 20 minutes on a bench top Eppendorf Mini Spin®. The supernatant was decanted into a glass tube and evaporated under nitrogen. Samples were reconstituted in 100 μl ACN and injected onto the HPLC. All stability data was analyzed using pseudo first order kinetics. All stability studies were carried out at least, in triplicate.

[2] = In vitro diffusion study across microneedle-treated full thickness Yucatan miniature pig skin; assay type: in vitro ADME; settings: for bioconversion of the codrug in the skin: parent drugs in receiver/skin
Protocol: For all in vitro experiments female Yucatan minipig skin (6 months old) were used. Skin sections were obtained by removing the subcutaneous fatty tissue by scalpel dissection, and were stored at −20° C. A PermeGear flow-through (In-Line, Riegelsville, Pa., USA) diffusion cell system was used for the skin permeation studies.
The skin was pierced 20 times with an array containing 5 MN (i.e., to make a total of 100 individual and non-over lapping piercings) before mounting the skin in the diffusion cell for the treatment group. The insertion of MN into skin was carried out manually by applying gentle finger pressure followed by instantaneous removal. MN's were distributed evenly within the 0.95 cm^2 area of skin and could easily be visualized after each 5 MN insertion, as to prevent reapplication in the same area. Single MN array of 5 were used simply out of ease for the experimental procedure. If any damage to an MN section was observed the section was replaced. […] Untreated skin samples were simply placed in the diffusion cells. Diffusion cells were kept at 32° C. using a circulating water bath. Data were collected using skin from a single pig 3-4 cells for the MN treated formulations.
The physiological receiver solution was water adjusted to pH 7.4 containing 20% ethanol, and the flow rate was adjusted to 1.5 ml/h. Each cell was charged with 0.25 ml of the donor in the donor compartment of the chamber. The diffusion cells were covered with a stopper to prevent evaporation. Samples were collected from the receiver compartment in six-hour increments over 48 h or for the length of the treatment. All samples were stored at 4° C. until analyzed by HPLC.
The in vitro permeation experiments were carried out to determine the transdermal flux of the parent drugs and the codrug, permeation coefficients as well as the concentration of the drug molecules in the skin at the end of the study. For all in vitro experiments Yucatan miniature pig (YP) skin was used. Full thickness skin was obtained by removing the subcutaneous fatty tissue by scalpel dissection, and stored at −20° C. A PermeGear flow-through (In-Line, Riegelsville, Pa., USA) diffusion cell system was used for the skin permeation studies. […] The skin was pierced 20 times with a 5 MN array (making 100 individual and non-over lapping piercings) before mounting the skin in the diffusion cell. MN pores were distributed evenly within the 0.95 cm^2 area of skin. Untreated skin samples were mounted directly onto the diffusion cells. The setup was maintained at 32° C. using a circulating water bath. Data collected using a minimum of 3-4 cells per treatment group. The receiver solution was water alkalified to pH 7.4 containing 20% ethanol at 37° C. Gentamycin sulfate (50 mg/L) was added to the receiver for 7 day studies as an antibacterial agent. The receiver flow rate was adjusted to 1.5 ml/h to maintain skin conditions. Each cell was charged with 0.25 ml of the donor and the diffusion cells were covered with a stopper to prevent evaporation of formulation. Samples were collected at regular increments over 48 hours or for the length of the treatment. Drug was concentrated 10 fold by evaporating 1 ml of the collected sample under nitrogen and reconstituting in 100 μl of ACN for quantification. All samples were stored at 4° C. until analyzed by HPLC. The skin was removed at the end of the study and the treatment area was diced into small pieces using a scalpel after removing all excess drugs from top of the skin. Drug was extracted out by immersing the skin pieces in ACN overnight in a shaker water bath at 32° C. Samples were injected into the HPLC after appropriate dilution for quantitative analysis. The donor was also removed and quantified at the end of the study by direct injection onto HPLC after suitable dilution using ACN. All data was analyzed using Fick's first law of diffusion. […]

[3] = test system: hairless guinea pig micropores; assay: In vivo micropore visualization by gentian violet/India ink staining after MN treatment; settings: codrug gel under occlusion, patch changed at 3.5 days
Excerpt: The patches were removed at predetermined time points and the site was cleaned with sterile gauze. Gentian violet/India ink was applied as the dyeing agent at the MN treated sites and allowed to dry before excess dye was removed with ethanol and gauze. Both the dyes stain the viable epidermis but not the intact SC. […] The donor was removed from the top of the skin at the end of the study and analyzed by direct injection onto HPLC after suitable dilution using ACN.
All animal experiments were approved by the University of Kentucky IACUC. A proof of concept in vivo experiment was carried out. 4% w/w gels were prepared with the hydrochloride salt form of the codrug. Gels were formulated by dissolving 4% codrug salt in PG: buffer at pH 5.0=10:90 and 3.0% hydroxyethylcellulose (HEC) polymer (required to have a gel formulation). Polymer was dissolved over a 30 minute period to obtain a homogenous gel. The solution was stirred until a viscous gel resulted and then left at room temperature for 1½ to 2 hours to remove bubbles and ensure complete polymerization. The gel was saturated with excess solid and therefore was cloudy. MN treated animals were first cleaned topically with isopropyl alcohol, and 50 MN array was applied twice mutually perpendicular to each other to give a total of 100 pores at each site. 0.3 mL gel doses were applied to the dorsal region of the HGP. After application of the gel the skin was occluded with the occlusive patch and biocclusive tape was applied to prevent evaporation of the formulation. The patch was changed with new formulation at 3.5 days such that more than 50% intact codrug was always present in formulation. […] The patches were removed to obtain data at successive 24 h time intervals.
The patches were removed at predetermined time points and the site was cleaned with sterile gauze. Gentian violet/India ink was applied as the dyeing agent at the MN treated sites and allowed to dry before excess dye was removed with ethanol and gauze. Both the dyes stain the viable epidermis but not the intact SC.

[4] = Chemical stability in 0.3M acetate buffer pH 5.0 at 32° C.; assay type: physicochemical
Excerpt: The chemical stability of the prodrugs to hydrolysis and solvolysis at the appropriate temperatures will be determined by measuring concentrations over time in the buffers and solvents used in the solubility and diffusion studies. Chemical degradation rate constants will be important in distinguishing enzymatic degradation from non-enzymatic degradation. Codrug enzymatic metabolism rate constants can also be determined in skin homogenates, to ascertain if the values are useful in the QSPR multiple regression analysis. The kinetics of codrug enzymatic degradation in skin homogenates will be done using abdominal plastic surgery samples. Enzymatic reaction rates will be determined at several different codrug concentrations. The skin is homogenized (Polytron tissue homogenizer and ground glass homogenizer fitted with a glass pestle) in HEPES-buffered Hanks' balanced salt solution and the supernatant is obtained. The enzymatic hydrolysis rates are determined in the homogenate at 37° C. The codrug and its metabolites will be obtained by solid-phase extraction, or another appropriate extraction method. Naltrexone and any other metabolite formed will be assayed by HPLC and expressed as moles of metabolite per minute per milligram of protein. Protein concentrations in the supernatant will be measured by the Bradford method. Controls containing only codrug and HEPES-buffered Hanks' balanced salt solution at 37° C. will also be monitored to determine non-enzymatic hydrolysis.
Chemical and enzymatic stability was determined for the codrugs. For chemical stability studies, the codrug was put in prewarmed 0.3M acetate buffer pH 5.0 after solubilization in <5% ACN, if required, at 32° C. in an incubator. Samples were withdrawn at regular intervals and injected into the HPLC after appropriate dilutions. Enzymatic stability studies are important for estimation of conversion of codrugs in the plasma. […] All stability data was analyzed using pseudo first order kinetics. […]

[5] = Concentration of saturated donor solution; assay type: physicochemical; settings: base form; PG:ethanol:water=43:43:14
Protocol: Solubility studies are carried out by equilibrating large excesses of each drug with the solvent studied. The experiments will be done at skin surface temperature (32° C.). To hasten the attainment of equilibrium, each slurry will be continuously shaken or stirred. Samples will be taken, filtered with an appropriate filter for the solvent, measured with respect to volume, and either assayed directly by HPLC or evaporated to dryness and reconstituted for assay. Binding of the compounds to the filter will be checked to eliminate the possibility of drug adsorption on the filter and/or filter casing. All toxic solvents and other chemicals will be handled with caution, and fume hoods will be used when appropriate.
In vitro experiments. The goal of the first set of in vitro experiments was to estimate flux and skin concentration of the base form of the codrug.

[6] = in vivo, po, cited from earlier work
[7] = cited from earlier work

Compound | Enzymatic stability [1] | enzymatic stability half-life in hairless guinea pig plasma [1] | enzymatic stability half-life in hairless guinea pig plasma ([1]; listed as Compound 2U) | enzymatic stability half-life in hairless guinea pig plasma ([1]; listed as codrug) | diclofenac skin concentration versus effective skin concentration goal of FIG. 5 [2] | flux of NTX from the codrug relative to diclofenac flux ([2]; FIG. 6) | bioconversion of the codrug in the skin ([2]; MN treated skin) | bioconversion of the codrug in the skin ([2]; MN treated skin, listed as Compound 2U) | bioconversion of the codrug in the skin ([2]; MN treated skin, listed as codrug) | steady state flux of naltrexone from the codrug ([2]; base form, saturated donor PG:ethanol:water=43:43:14, MN treated skin, 48 h, n=3) | steady state flux of diclofenac from the codrug ([2]; base form, saturated donor PG:ethanol:water=43:43:14, MN treated skin, 48 h, n=3, listed as Compound 2U) | time the pores stay open after MN treatment [3] | Chemical stability [4] | concentration of saturated donor solution [5] | oral bioavailability [6] | oral bioavailability ([6]; listed as Naltrexone) | log P [7]
O=C(Cc1ccccc1Nc1c(Cl)cccc1Cl)Oc1ccc2c3c1O[C@H]1C(=O)CC[C@@]4(O)[C@@H](C2)N(CC2CC2)CC[C@]314 [Compound 2A] | 6.4 ± 0.84 min | around 6 minutes | 6.4 ± 0.84 min | 6.4 ± 0.84 min | did not provide that level | twice as high | bioconverted completely in the skin | degraded in the skin to regenerate back the parent drugs | completely hydrolyzed in the skin; also recorded: degraded in the skin to regenerate back the parent drugs | 0.42±0.12 nmol/(cm^2/h) | 0.19±0.06 nmol/(cm^2/h) | 7 days | 3.9 ± 0.56 days | 4500 µg/mL |  |  | 
O=C1CC[C@@]2(O)[C@H]3Cc4ccc(O)c5c4[C@@]2(CCN3CC2CC2)[C@H]1O5 [NTX, Naltrexone] |  |  |  |  |  |  |  |  |  |  |  |  |  |  | 5-40% | five to forty | 1.8
